The experiment has as its system BDF1 mice, P388 leukemia ip, median survival T/C. Kind of experiment: NCI In Vivo Anticancer Drug Screen. Data for tumor model P388 Leukemia (intraperitoneal) in B6D2F1 (BDF1) mice. Conditions: endpoint: median survival time, higher = longer survival. An outline of the steps: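 T/C = treated-group survival ÷ vehicle-control survival; tumour transplanted into mice before dosing.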

Setting [1] is: dose: 25.0 mg/kg/injection, schedule: Q01DX009 (ip), vehicle: Klucel (hydroxypropylcellulose) (HPC).
Setting [2] is: dose: 50.0 mg/kg/injection, schedule: Q01DX009 (ip), vehicle: Klucel (hydroxypropylcellulose) (HPC).

Here are results for six molecules from PubChem BioAssay AID328 (DTP/NCI, 2004).

Values joined by “and” are separate entries in the source; they are usually repeats but may differ in a detail not shown here. Equal entries are not always repeated. Toxic doses and inconclusive results are not listed.

Consider `O=NN(CCCl)C(=O)Nc1ccc(NC(=O)N(CCCl)N=O)cc1`, for which the T/C reads like this: (dose: 0.03 mg/kg/injection, schedule: Q04DX003 (ip), vehicle: Klucel (hydroxypropylcellulose) (HPC)) 100 % of control; (dose: 0.06 mg/kg/injection, schedule: Q04DX003 (ip), vehicle: Klucel (hydroxypropylcellulose) (HPC)) 108 % of control; (dose: 0.12 mg/kg/injection, schedule: Q01DX009 (ip), vehicle: Klucel (hydroxypropylcellulose) (HPC)) 111 % of control; (dose: 0.12 mg/kg/injection, schedule: Q04DX003 (ip), vehicle: Klucel (hydroxypropylcellulose) (HPC)) 108 % of control; (dose: 0.25 mg/kg/injection, schedule: Q01DX009 (ip), vehicle: Klucel (hydroxypropylcellulose) (HPC)) 177 % of control; (dose: 0.25 mg/kg/injection, schedule: Q04DX003 (ip), vehicle: Klucel (hydroxypropylcellulose) (HPC)) 150 % of control. Besides, the T/C reads like this: (dose: 0.5 mg/kg/injection, schedule: Q01DX009 (ip), vehicle: Klucel (hydroxypropylcellulose) (HPC)) 222 % of control; (dose: 0.5 mg/kg/injection, schedule: Q04DX003 (ip), vehicle: Klucel (hydroxypropylcellulose) (HPC)) 154 % of control; (dose: 0.6 mg/kg/injection, schedule: Q04DX003 (ip), vehicle: Klucel (hydroxypropylcellulose) (HPC)) 117 % of control; (dose: 1.0 mg/kg/injection, schedule: Q01DX009 (ip), vehicle: Klucel (hydroxypropylcellulose) (HPC)) 94 % of control; (dose: 1.0 mg/kg/injection, schedule: Q04DX003 (ip), vehicle: Klucel (hydroxypropylcellulose) (HPC)) 204 % of control; (dose: 1.5 mg/kg/injection, schedule: Q01DX009 (ip), vehicle: Klucel (hydroxypropylcellulose) (HPC)) 254 % of control. The T/C is 152 % of control (dose: 1.6 mg/kg/injection, schedule: Q04DX003 (ip), vehicle: Klucel (hydroxypropylcellulose) (HPC)); 186 % of control (dose: 2.0 mg/kg/injection, schedule: Q04DX003 (ip), vehicle: Klucel (hydroxypropylcellulose) (HPC)); 160 % of control and 175 % of control (dose: 2.5 mg/kg/injection, schedule: Q04DX003 (ip), vehicle: Klucel (hydroxypropylcellulose) (HPC)); 231 % of control (dose: 3.0 mg/kg/injection, schedule: Q01DX009 (ip), vehicle: Klucel (hydroxypropylcellulose) (HPC)); 186 % of control (dose: 3.0 mg/kg/injection, schedule: Q04DX003 (ip), vehicle: Klucel (hydroxypropylcellulose) (HPC)); 187 % of control (dose: 4.0 mg/kg/injection, schedule: Q04DX003 (ip), vehicle: Klucel (hydroxypropylcellulose) (HPC)). For the same molecule, the T/C is 272 % of control (dose: 6.0 mg/kg/injection, schedule: Q01DX009 (ip), vehicle: Klucel (hydroxypropylcellulose) (HPC)); 227 % of control and 187 % of control and 213 % of control (dose: 6.0 mg/kg/injection, schedule: Q04DX003 (ip), vehicle: Klucel (hydroxypropylcellulose) (HPC)); 190 % of control (dose: 9.0 mg/kg/injection, schedule: Q04DX003 (ip), vehicle: Klucel (hydroxypropylcellulose) (HPC)); 213 % of control (dose: 12.0 mg/kg/injection, schedule: Q04DX003 (ip), vehicle: Klucel (hydroxypropylcellulose) (HPC)); 300 % of control (dose: 12.5 mg/kg/injection, schedule: Q01DX009 (ip), vehicle: Klucel (hydroxypropylcellulose) (HPC)); 231 % of control and 259 % of control (dose: 13.0 mg/kg/injection, schedule: Q04DX003 (ip), vehicle: Klucel (hydroxypropylcellulose) (HPC)). The T/C runs as follows: (dose: 20.0 mg/kg/injection, schedule: Q04DX003 (ip), vehicle: Klucel (hydroxypropylcellulose) (HPC)) 245 % of control; under setting [1], 300 % of control; (dose: 25.0 mg/kg/injection, schedule: Q04DX003 (ip), vehicle: Klucel (hydroxypropylcellulose) (HPC)) 272 % of control; (dose: 30.0 mg/kg/injection, schedule: Q04DX003 (ip), vehicle: Klucel (hydroxypropylcellulose) (HPC)) 250 % of control and 272 % of control; (dose: 44.0 mg/kg/injection, schedule: Q04DX003 (ip), vehicle: Klucel (hydroxypropylcellulose) (HPC)) 250 % of control; under setting [2], 210 % of control. Moreover, the T/C is, setting by setting: (dose: 50.0 mg/kg/injection, schedule: Q04DX003 (ip), vehicle: Klucel (hydroxypropylcellulose) (HPC)) 254 % of control; (dose: 66.0 mg/kg/injection, schedule: Q04DX003 (ip), vehicle: Klucel (hydroxypropylcellulose) (HPC)) 241 % of control and 250 % of control; (dose: 100.0 mg/kg/injection, schedule: Q04DX003 (ip), vehicle: Klucel (hydroxypropylcellulose) (HPC)) 233 % of control and 254 % of control and 260 % of control; (dose: 150.0 mg/kg/injection, schedule: Q01DX009 (ip), vehicle: Klucel (hydroxypropylcellulose) (HPC)) 115 % of control; (dose: 150.0 mg/kg/injection, schedule: Q04DX003 (ip), vehicle: Klucel (hydroxypropylcellulose) (HPC)) 175 % of control; (dose: 200.0 mg/kg/injection, schedule: Q04DX003 (ip), vehicle: Klucel (hydroxypropylcellulose) (HPC)) 260 % of control and 272 % of control. Besides, the T/C (dose: 400.0 mg/kg/injection, schedule: Q01DX009 (ip), vehicle: Klucel (hydroxypropylcellulose) (HPC)) is 115 % of control; the T/C (dose: 400.0 mg/kg/injection, schedule: Q04DX003 (ip), vehicle: Klucel (hydroxypropylcellulose) (HPC)) was 234 % of control and 177 % of control; the T/C (dose: 600.0 mg/kg/injection, schedule: Q04DX003 (ip), vehicle: Klucel (hydroxypropylcellulose) (HPC)) was 272 % of control.
Turning to `O=C(Nc1[nH]nc2nccnc12)C(F)(F)F`, the T/C reads like this: (dose: 100.0 mg/kg/injection, schedule: Q04DX003 (ip), vehicle: saline with Tween-80) 109 % of control; (dose: 200.0 mg/kg/injection, schedule: Q04DX003 (ip), vehicle: saline with Tween-80) 104 % of control; (dose: 400.0 mg/kg/injection, schedule: Q04DX003 (ip), vehicle: saline with Tween-80) 118 % of control.
Regarding `C#CC(C)(C)OCC(O)CCl` (configuration not stated), the T/C by setting is: (dose: 50.0 mg/kg/injection, schedule: Q01DX009 (ip), vehicle: saline) 95 % of control; (dose: 100.0 mg/kg/injection, schedule: Q01DX009 (ip), vehicle: saline) 100 % of control; (dose: 100.0 mg/kg/injection, schedule: Q04DX003 (ip), vehicle: saline) 91 % of control; (dose: 200.0 mg/kg/injection, schedule: Q01DX009 (ip), vehicle: saline) 91 % of control; (dose: 200.0 mg/kg/injection, schedule: Q04DX003 (ip), vehicle: saline) 100 % of control; (dose: 400.0 mg/kg/injection, schedule: Q04DX003 (ip), vehicle: saline) 112 % of control.
Turning to `Cc1ccc(SC2CC3CC2C2COCC32)cc1` (configuration not stated), the T/C was 86 % of control under setting [1]; 95 % of control under setting [2]; 104 % of control (dose: 100.0 mg/kg/injection, schedule: Q01DX009 (ip), vehicle: Klucel (hydroxypropylcellulose) (HPC)).
Take `CC(=O)OC1(C)CC(C)C(=O)C(C(O)CC2CC(=O)NC(=O)C2)C1` (configuration not stated): the T/C reads like this: (dose: 0.25 mg/kg/injection, schedule: Q01DX010 (ip), vehicle: water) 90 % of control; (dose: 2.16 mg/kg/injection, schedule: Q01DX001 (sc), vehicle: saline) 100 % of control; (dose: 3.24 mg/kg/injection, schedule: Q01DX001 (ip), vehicle: saline) 110 % of control; (dose: 3.6 mg/kg/injection, schedule: Q01DX001 (sc), vehicle: saline) 123 % of control; (dose: 5.4 mg/kg/injection, schedule: Q01DX001 (ip), vehicle: saline) 116 % of control; (dose: 5.4 mg/kg/injection, schedule: Q04DX003 (ip), vehicle: saline) 107 % of control. The T/C runs as follows: (dose: 6.0 mg/kg/injection, schedule: Q01DX001 (sc), vehicle: saline) 118 % of control; (dose: 9.0 mg/kg/injection, schedule: Q01DX001 (ip), vehicle: saline) 117 % of control; (dose: 15.0 mg/kg/injection, schedule: Q01DX001 (ip), vehicle: saline) 123 % of control; (dose: 778.0 micrograms/kg/injection, schedule: Q04DX003 (sc), vehicle: saline) 109 % of control; (dose: 1300.0 micrograms/kg/injection, schedule: Q04DX003 (sc), vehicle: saline) 116 % of control; (dose: 2160.0 micrograms/kg/injection, schedule: Q04DX003 (sc), vehicle: saline) 107 % of control. The T/C (dose: 3600.0 micrograms/kg/injection, schedule: Q04DX003 (sc), vehicle: saline) was 98 % of control.
As for `O=C(Nc1ccc(NC(=O)c2ccc(C3=NCCCN3)cc2)cc1)c1ccc(C2=NCCCN2)cc1`, the T/C (dose: 33.0 mg/kg/injection, schedule: Q04DX003 (ip), vehicle: saline with Tween-80) was 159 % of control; the T/C (dose: 50.0 mg/kg/injection, schedule: Q04DX003 (ip), vehicle: saline with Tween-80) was 153 % of control and 181 % of control; the T/C (dose: 75.0 mg/kg/injection, schedule: Q04DX003 (ip), vehicle: saline with Tween-80) was 168 % of control and 207 % of control.
